Measurements reported in patent US9266870B2 (TAISHO PHARMACEUTICAL CO., LTD., priority 2012, dated 2016).
Where two headings read alike, the source gives them in different places.

Key:
[1] = target: human orexin-2 receptor (hOX2R) (Homo sapiens (Human), UniProt O43614); assay: Measurement of orexin antagonistic activity (intracellular Ca2+ fluorescence, FDSS), hOX2R; type: cell-based; conditions: CHO cells forcibly expressing hOX2R; ligand peptide (modified human orexin-A) 3 nM; maximum fluorescence intensity; read-out: IC50 Value OX2
Experimental: (§1) The antagonistic activities of the test compounds on human orexin-1 receptor (hOX1R) and orexin-2 receptor (hOX2R) were measured by modifying from the method described in literature (Toshikatsu Okumura et al., Biochemical and Biophysical Research Communications 280, 976-981, 2001). Chinese hamster ovary (CHO) cells forcibly expressing the hOX1R and hOX2R were seeded into a 96 well Black clear bottom plate (Nunc) at 20,000 cells per well, which were cultured in Ham's F-12 medium containing 0.1 mM MEM non-essential amino acids, 0.5 mg/ml G418, 10% fetal bovine serum (all by Invitrogen) for 16 hours under the conditions of 37° C., 5% CO2. After removing the medium, 100 μL of 0.5 μM Fluo-4AM ester (Dojin) in an assay buffer (25 mM HEPES (Dojin), Hank's balanced salt solution (Invitrogen), 0.1% bovine serum albumin, 2.5 mM probenecid, 200 μg/ml Amaranth (all by Sigma-Aldrich), pH 7.4) was added and the cells were incubated for 60 minutes at 37° C., 5% CO2. After removing the assay buffer containing […] ester, the test compound was dissolved in dimethyl sulfoxide to be 10 mM and diluted with the assay buffer, 150 μL of which was added and incubated for 30 minutes.
(§2) The reaction was measured for the fluorescence intensity of each well every second for 3 minutes using Functional Drug Screening System (FDSS; Hamamatsu Photonics K.K.), and the antagonistic activity was determined using the maximum fluorescence intensity as the indicator of intracellular Ca2+ concentration.

[2] = target: human orexin-1 receptor (hOX1R) (Homo sapiens (Human), UniProt O43613); assay: Measurement of orexin antagonistic activity (intracellular Ca2+ fluorescence, FDSS), hOX1R; type: cell-based; conditions: ligand peptide (modified human orexin-A) 300 pM, maximum fluorescence intensity
Experimental: as §1, with “Chinese” for “The antagonistic activities of the test compounds on human orexin-1 receptor (hOX1R) and orexin-2 receptor (hOX2R) were measured by modifying from the method described in literature (Toshikatsu Okumura et al., Biochemical and Biophysical Research Communications 280, 976-981, 2001). Chinese”
as §2

[3] = CHO cells forcibly expressing hOX1R, read-out: IC50 Value OX1

Chain of human orexin-2 receptor (hOX2R) (O43614 whole entry): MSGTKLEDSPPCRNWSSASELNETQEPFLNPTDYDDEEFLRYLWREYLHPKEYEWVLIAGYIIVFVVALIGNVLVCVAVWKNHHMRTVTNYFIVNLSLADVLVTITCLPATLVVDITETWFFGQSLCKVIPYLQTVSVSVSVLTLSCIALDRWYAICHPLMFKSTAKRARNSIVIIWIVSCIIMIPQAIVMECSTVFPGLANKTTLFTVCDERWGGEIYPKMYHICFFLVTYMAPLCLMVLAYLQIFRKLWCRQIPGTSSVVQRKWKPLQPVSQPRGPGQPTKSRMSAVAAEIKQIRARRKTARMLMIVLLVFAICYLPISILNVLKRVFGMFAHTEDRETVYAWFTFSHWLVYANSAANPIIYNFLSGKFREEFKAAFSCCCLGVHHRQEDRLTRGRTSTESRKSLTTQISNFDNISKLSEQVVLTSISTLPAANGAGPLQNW
Chain of human orexin-1 receptor (hOX1R) (O43613 whole entry): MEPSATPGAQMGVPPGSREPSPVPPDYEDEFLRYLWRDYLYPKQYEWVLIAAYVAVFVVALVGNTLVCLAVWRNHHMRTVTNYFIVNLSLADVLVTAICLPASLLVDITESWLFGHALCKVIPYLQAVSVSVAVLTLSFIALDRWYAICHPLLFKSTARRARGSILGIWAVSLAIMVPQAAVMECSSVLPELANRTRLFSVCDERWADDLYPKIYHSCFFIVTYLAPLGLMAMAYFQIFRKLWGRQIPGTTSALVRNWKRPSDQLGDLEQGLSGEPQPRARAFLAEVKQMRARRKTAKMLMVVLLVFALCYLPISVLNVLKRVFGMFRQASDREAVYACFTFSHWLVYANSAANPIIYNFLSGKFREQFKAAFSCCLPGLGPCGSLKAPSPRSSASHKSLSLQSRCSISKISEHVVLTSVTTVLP

| IC50 [1] [nM] | IC50 [2, 3] [nM] | SMILES | IC50 ([2]; IC50 Value OX1, CHO cells forcibly expressing hOX1R) [nM] |
| --- | --- | --- | --- |
| 252 | 17.5 | O=C(c1ccccc1-n1nccn1)N1CCOC1Cn1ccc(-c2ccc(F)cn2)n1 (racemic) [Example 11, (±)-(2-{[3-(5-Fluoropyridin-2-yl)-1H-pyrazol-1-yl]methyl}-1,3-oxazolidin-3-yl)[2-(2H-1,2,3-triazol-2-yl)phenyl]methanone] | – |
| 171 | – | O=C(c1cc(F)ccc1-n1nccn1)N1CCOC1Cn1ccc(-c2ccc(F)cn2)n1 (racemic) [Example 12, (±)-(2-[[3-(5-fluoropyridin-2-yl)-1H-pyrazol-1-yl]methyl]-1,3-oxazolidin-3-yl) [5-fluoro-2-(2H-l,2,3-triazol-2-yl)phenyl]methanone] | – |
| 71.7 | 28.9 | O=C(c1cc(F)ccc1-c1ncccn1)N1CCOC1Cn1ccc(-c2ccc(F)cn2)n1 (racemic) [Example 16, (±)-(2-[[3-(5-fluoropyridin-2-yl)-1H-pyrazol-1-yl]methyl]-1,3-oxazolidin-3-yl) [5-fluoro-2-(pyrimidin-2-yl)phenyl]methanone] | – |
| – | 5.1 | Cc1ccc(-n2nccn2)c(C(=O)N2CCOC2Cn2ccc(-c3ccc(F)cc3)n2)c1 (racemic) [Example 17, (±)-(2-[[3-(4-fluorophenyl)-1H-pyrazol-1-yl]methyl]-1,3-oxazolidin-3-yl)[5-methyl-2-2H-1,2,3-triazol-2-yl) phenyl]methanone] | – |
| 192 | 26.4 | O=C(c1ccccc1-n1nccn1)N1CCOC1Cn1ccc(-c2ccc(F)cc2)n1 (racemic) [Example 18, (±)-(2-[[3-(4-fluorophenyl)-1H-pyrazol-1-yl]methyl]-1,3-oxazolidin-3-yl)[2-(2H-1,2,3-triazol-2-yl)phenyl] methanone] | – |
| 233 | 76.8 | O=C(c1cc(F)ccc1-n1nccn1)N1CCOC1Cn1ccc(-c2ccc(F)cc2)n1 (racemic) [Example 19, (±)-(2-[[3-(4-fluorophenyl)-1H-pyrazol-1-yl]methyl]-1,3-oxazolidin-3-yl)[5-fluoro-2-(2H-1,2,3-triazol-2-yl)phenyl]methanone] | – |
| 101 | 12.3 | Cc1ccc(-c2ncccn2)c(C(=O)N2CCOC2Cn2ccc(-c3ccc(F)cc3)n2)c1 (racemic) [Example 20, (±)-(2-[[3-(4-fluorophenyl)-1H-pyrazol-1-yl]methyl]-1,3-oxazolidin-3-yl)[5-methyl-2-(pyrimidin-2-yl)phenyl]methanone] | – |
| 234 | 30.2 | O=C(c1cc(F)ccc1-c1ncccn1)N1CCOC1Cn1ccc(-c2ccc(F)cc2)n1 (racemic) [Example 21] | – |
| 112 | 96.3 | Cc1ccc(-n2nccn2)c(C(=O)N2CCOC2Cn2cc(-c3ccc(F)cc3)cn2)n1 (racemic) [Example 23, (±)-(2-[[4-(4-fluorophenyl)-1H-pyrazol-1-yl]methyl]-1,3-oxazolidin-3-yl)[6-methyl-3-(2H-1,2,3-triazol-2-yl)pyridin-2-yl]methanone] | – |
| 26.7 | – | Cc1ccc(-c2ncccn2)c(C(=O)N2CCOC2Cn2cc(-c3ccc(F)cc3)cn2)c1 (racemic) [Example 24, (±)-(2-[[4-(4-fluorophenyl)-1H-pyrazol-1-yl]methyl]-1,3-oxazolidin-3-yl)[5-methyl-2-(pyrimidin-2-yl)phenyl]methanone] | – |
| – | 4.9 | Cc1ccc(-n2nccn2)c(C(=O)N2CCOC2Cn2ccc(-c3ccc(F)cn3)n2)c1 (single isomer, unassigned; (-)) [Example 1, (−)-(2-{[3-(5-Fluoropyridin-2-yl)-1H-pyrazol-1-yl]methyl}-1,3-oxazolidin-3-yl)[5-methyl-2-(2H-1,2,3-triazol-2-yl)phenyl]methanone] | – |
| – | 9.6 | Cc1ccc(-n2nccn2)c(C(=O)N2CCCOC2Cn2cc(-c3ccc(F)cn3)cn2)c1 (single isomer, unassigned; (-)) [Example 4, (−)-(2-[[4-(5-fluoropyridin-2-yl)-1H-pyrazol-1-yl]-methyl]-1,3-oxazinan-3-yl)[5-methyl-2-(2H-1,2,3-triazol-2-yl)phenyl] methanone] | – |
| – | – | Cc1ccc(-n2nccn2)c(C(=O)N2CCCOC2Cn2cc(-c3ccc(F)cc3)cn2)c1 (single isomer, unassigned; (-)) [Example 35, (−)-[2-[[4-(4-fluorophenyl)-1H-pyrazol-1-yl]methyl]-1,3-oxazinan-3-yl][5-methyl-2-(2H-1,2,3-triazol-2-yl)phenyl]methanone] | 0.8 |
| – | 8.3 | Cc1ccc(-n2nccn2)c(C(=O)N2CC(C)COC2Cn2cc(-c3ccc(F)cn3)cn2)c1 (single isomer, unassigned; (-)) [Example 40, (−)-[(2S*,5S*)-2-{[4-(5-Fluoropyridin-2-yl)-1H-pyrazol-1-yl]methyl}-5-methyl-1,3-oxazinan-3-yl][5-methyl-2-(2H-1,2,3-triazol-2-yl)phenyl]methanone] | – |
| – | 2.6 | Cc1ccc(-c2ncccn2)c(C(=O)N2CCCOC2Cn2cc(-c3ccc(F)cc3)cn2)c1 (single isomer, unassigned; (-)) [Example 43, (−)-[2-[[4-(4-fluorophenyl)-1H-pyrazol-1-yl]methyl]-1,3-oxazinan-3-yl][5-methyl-2-(pyrimidin-2-yl)phenyl]methanone] | – |
| – | 60.4 | O=C(c1cc(F)ccc1-c1ncccn1)N1CCCOC1Cc1cnn(-c2ccc(F)cn2)c1 (single isomer, unassigned; (-)) [Example 44, (−)-[2-[[1-(5-fluoropyridin-2-yl)-1H-pyrazol-4-yl]methyl]-1,3-oxazinan-3-yl] [5-fluoro-2-(pyrimidin-2-yl)phenyl]methanone] | – |
| – | 3.4 | Cc1ccc(-n2nccn2)c(C(=O)N2CCCOC2Cc2cnn(-c3ccc(F)cn3)c2)c1 (single isomer, unassigned; (-)) [Example 47, (−)-[2-{[1-(5-Fluoropyridin-2-yl)-1H-pyrazol-4-yl]methyl}-1,3-oxazinan-3-yl][5-methyl-2-(2H-1,2,3-triazol-2-yl)phenyl]methanone] | – |
| – | 0.8 | Cc1ccc(-n2nccn2)c(C(=O)N2CC(C)COC2Cn2cc(-c3ccc(F)cn3)cn2)c1 (single isomer, unassigned; (-)) [Example 49, (−)-[(2S*,5R*)-2-{[4-(5-Fluoropyridin-2-yl)-1H-pyrazol-1-yl]methyl}-5-methyl-1,3-oxazinan-3-yl][5-methyl-2-(2H-1,2,3-triazol-2-yl)phenyl]methanone] | – |
| – | 86 | Cc1ccc(-n2nccn2)c(C(=O)N2C[C@H](C)O[C@H]2Cn2cc(-c3ccc(F)cn3)cn2)c1 [Example 5, (−)-[(2S,5S)-2-{[4-(5-Fluoropyridin-2-yl)-1H-pyrazol-1-yl]methyl}-5-methyl-1,3-oxazolidin-3-yl][5-methyl-2-(2H-1,2,3-triazol-2-yl)phenyl]methanone] | – |
| – | 27.5 | Cc1ccc(-n2nccn2)c(C(=O)N2C[C@@H](C)O[C@H]2Cn2cc(-c3ccc(F)cn3)cn2)c1 [Example 6, (−)-[(2S,5R)-2-[[4-(5-fluoropyridin-2-yl)-1H-pyrazol-1-yl]methyl]-5-methyl-1,3-oxazolidin-3-yl] [5-methyl-2-(2H-1,2,3-triazol-2-yl)phenyl] methanone] | – |
| – | 7.2 | Cc1ccc(-n2nccn2)c(C(=O)N2[C@H](C)CO[C@H]2Cn2ccc(-c3ccc(F)cn3)n2)c1 [Example 7, [(2S,4R)-2-[[3-(5-fluoropyridin-2-yl)-1H-pyrazol-1-yl]-methyl]-4-methyl-1,3-oxazolidin-3-yl] [5-methyl-2-(2H-1,2,3-triazol-2-yl)phenyl] methanone] | – |
| – | 23.4 | Cc1ccc(-n2nccn2)c(C(=O)N2[C@H](Cn3ccc(-c4ccc(F)cn4)n3)OC[C@@H]2C)c1 [Example 9, (−)-[(2S,4S)-2-[[3-(5-fluoropyridin-2-yl)-1H-pyrazol-1-yl]-methyl]-4-methyl-1,3-oxazolidin-3-yl] [5-methyl-2-(2H-1,2,3-triazol-2-yl)phenyl] methanone] | – |

| SMILES | IC50 [1] [nM] | IC50 [2, 3] [nM] | IC50 ([2]; IC50 Value OX1, CHO cells forcibly expressing hOX1R) [nM] |
| --- | --- | --- | --- |
| Cc1ccc(-n2nccn2)c(C(=O)N2CCOC2Cn2ccc(-c3ccc(F)cn3)n2)n1 (racemic) [Example 13, (±)-(2-[[3-(5-fluoropyridin-2-yl)-1H-pyrazol-1-yl]methyl]-1,3-oxazolidin-3-yl) [6-methyl-3-(2H-l,2,3-triazol-2-yl)pyridin-2-yl] methanone] | 251 | 121 | – |
